Reference: article PMC5855688, “BC-Box Motif-Mediated Neuronal Differentiation of Somatic Stem Cells” (International Journal of Molecular Sciences, 2018)

Legend:
[1] = system: skin-derived precursors (SKPs); assay: Neurite outgrowth / morphological evaluation of neuronal differentiation; type: cell-based, rat (neonate Wistar); details: for Morphological change: phase-contrast microscopy, Figure 1E
Protocol: (§1) Rodent skin-derived precursor cells (SKPs), which can differentiate to neurons, were used. SKPs were previously isolated from the back dermis of neonate Wistar rats by the authors. These cells were cultured in growth medium composed of DMEM/F12 (1:1; Gibco, Grand Island, NY, USA) containing 2% B27 supplement (Gibco), 20 ng/mL epidermal growth factor (EGF; Upstate Biotechnology, Lake Placid, NY, USA), and 40 ng/mL bFGF (PeproTech EC Ltd., Rocky Hill, NJ, USA) in a humidified incubator at 37 °C with 5% CO2. The floating clusters of cultured cells were centrifuged and dissociated into a single-cell suspension by use of a Pasteur pipette with a flame-polished tip. These single cells were then re-suspended into at a concentration of 50,000 cells/mL for passage or experiments.
(§2) For neuronal differentiation, cells were dissociated into a single-cell suspension by use of a Pasteur pipette and re-suspended into a concentration of 50,000 cells/mL in DMEM/F12 without serum, neurotrophic factors or growth factors. Then, the cells were cultured on poly-L-lysine-coated dishes or cover glasses, and the synthesized peptides at concentrations from 1 to 5 μM were added to the culture medium and delivered into the cells. Three days or more later, the cells were used for morphological, immunocytochemical, immunohistochemical, electrophysiological and immunoprecipitation studies, as well as for Western blot analysis.
Neurite outgrowth with length exceeding the diameter of the neuronal soma is often assessed as a morphological index of neuronal differentiation. After a single-cell suspension was made by pipetting, the cells were cultured in DMEN/F12 medium alone at 37 °C in a 5% CO2 incubator. Thereafter, neurite outgrowth was evaluated with the following 4 levels: +++, for above 50% of the cells showing neurite outgrowth; ++, for 20–50% with neurite outgrowth; +, for 5–19% having neurite outgrowth; and −, for below 5% of the cells with neurite outgrowth.

[2] = system: skin-derived precursors (SKPs); assay: Western blot analysis of neuronal markers in NDD peptide-treated cells; type: cell-based, rat (neonate Wistar); details: Figure 6A; for Expression of ChAT: choline acetyltransferase; for Expression of TH: tyrosine hydroxylase; for Expression of GAD: glutamic acid decarboxylase
Protocol: as §1, §2
(§3) Cultured cells were washed 3 times in cold PBS and then scraped into ice-cold PBS. After incubation on ice for 10 min, the cells were lysed with lysis buffer and centrifuged, after which the supernatants were collected. Each sample was separated by SDS-PAGE under reducing conditions and transferred electrophoretically to nitrocellulose filters. Non-specific binding of antibody was blocked by incubation with 5% donkey serum for 1 h. Western blots were probed with anti-MAP2 antibody, anti-NFH antibody, anti-ChAT antibody, anti-GAD antibody, anti-rhodopsin antibody, anti-TH antibody, and anti-elongin C antibody (Santa Cruz, San Diego, CA, USA) followed by horseradish peroxidase-conjugated secondary antibodies. Protein bands were detected by using a chemical luminescence detection system (ECL Plus Western Blotting Reagent Pack, Amersham, Hemel Hempstead, UK). Images were analyzed with LAS-1000 (Fujifilm, Tokyo, Japan), and the density of the bands was determined by using Image Gauge software (Fujifilm).

[3] = system: skin-derived precursors (SKPs); assay: Immunocytochemistry of neuronal markers in NDD peptide-treated cells; type: cell-based, rat (neonate Wistar); details: Figure 6B
Protocol: as §1, §2
(§4) Cultured cells were fixed with 4% paraformaldehyde in PBS (Phosphate buffered saline) for 10 min at room temperature. Cells were incubated for 1 h at room temperature with primary antibodies. Antibodies against anti-MAP2 antibody (Sigma-Aldrich, St. Louis, MO, USA), anti-Neurofilment-H (NFH) antibody (Sigma-Aldrich), anti-NeuN antibody (Merk Millipore, Billerica, MA, USA), anti-GFAP antibody (DAKO, Santa Clara, CA, USA), anti-tyrosine hydroxylase (TH) antibody (Merk Millipore, Billerica, MA, USA), anti-choline acetyl transferase (ChAT) antibody (Abbiotec, San Diego, CA, USA), anti-glutamic acid decaboxylase (GAD) antibody (Enzo Life Sciences, Flamingdale, NY, USA), and anti-rhodopsin antibody (Santa Cruz, San Diego, CA, USA) were used. After incubation with primary antibody, the cells were incubated for 1 h with secondary antibody, either rhodamine-conjugated anti-mouse IgG (Sigma-Aldrich) or FITC-conjugated anti-rabbit IgG (Sigma-Aldrich). Nuclear counterstaining was done with DAPI (Molecular Probes, Eugene, OR, USA) or TO-PRO-3 (Molecular Probes), and observations were made with a fluorescence microscope system (FV300, Olympus, Tokyo, Japan). We counted the number of immuno-positive cells with a given antibody in 4 to 6 random non-overlapping visual fields (50–200 cells per field) in each experiment. At least 2 experiments were performed per condition. The degree of positivity was expressed as the rate of immuno-positive cells to the total number of nuclei stained with DAP1 or TO-PRO-3.

[4] = system: elongin C; assay: Immunoprecipitation with anti-elongin C, immunoblot anti-FITC; type: binding, rat; details: FITC-conjugated peptides, Figure 3C, difference p < 0.001
Protocol: as §2
Cultured cells (1 × 10^6) were washed with ice-cold PBS and lysed in RIPA lysis buffer (Upstate, Charlottesville, VA, USA). The total protein was extracted from the cells, and the total protein concentration of each lysate was adjusted to 1 mg/mL. The lysates were immunoprecipitated with anti- elongin C antibody (Santa Cruz, San Diego, CA, USA) diluted at 1:500 by using μMACS Protein A Microbeads (Miltenyi Biotec, Bergisch Gladbach, Germany). The immunoprecipitates were analyzed by SDS/gradient polyacrylamide gel and Western blotting with anti-FITC antibody (Santa Cruz, San Diego, CA, USA) diluted 1:500. Immunolabeled bands were detected by using enhanced chemiluminescence reagents (Amersham Biosciences Corp., Piscataway, NJ, USA). Images were analyzed with LAS-1000 (Fujifilm), and the density of the bands was determined by using Image Gauge software (Fujifilm).

[5] = system: skin-derived precursors (SKPs); assay: Immunocytochemistry with anti-Neurofilament-H (NFH) antibody; type: cell-based, rat (neonate Wistar); details: ten divided pVHL sequences compared, Figure 1C; peptides at 1 to 5 μM
Protocol: as §1, §2
as §4, with “After incubation with primary antibody, the cells were incubated for 1 h with secondary antibody, either rhodamine-conjugated anti-mouse IgG (Sigma-Aldrich) or FITC-conjugated anti-rabbit IgG (Sigma-Aldrich).” left out, “At least 2 experiments were performed per condition.” left out

[6] = system: skin-derived precursors (SKPs); assay: Western blot analysis of NFH protein; type: cell-based, rat (neonate Wistar); details: ten divided pVHL sequences compared, Figure 1B, peptides at 1 to 5 μM
Protocol: as §1, §2, §3

[7] = BC-box motif alone (10-residue) peptides, delivered with TAT PTD, 1 to 5 μM
[8] = BC-box motif plus five C-terminal amino acids peptides, delivered with TAT PTD, 1 to 5 μM

Sequence: YARAAARQARA PLQELCRQRI [SOCS1 BC-box motif alone]
- Neurite Outgrowth Activity [1, 7]: - (below 5% of the cells with neurite outgrowth)

Sequence: YARAAARQARA SLKHLCRKAL [WSB2 BC-box motif alone]
- Neurite Outgrowth Activity [1, 7]: - (below 5% of the cells with neurite outgrowth)

Sequence: YARAAARQARA SLQYICRAVI [SOCS5 BC-box motif alone]
- Neurite Outgrowth Activity [1, 7]: + (5–19% having neurite outgrowth)

Sequence: YARAAARQARA TLKERCLQVV [VHL(157–166), pVHL BC-box motif alone, conjugated with PTD]
- Neurite Outgrowth Activity [1, 7]: - (below 5% of the cells with neurite outgrowth)
- Neurite Outgrowth Activity ([1]; Figure 2A, rates of cells having neurites, peptides at 1 to 5 μM, VHL157–168 vs VHL(157–171) p < 0.005): scarcely did

Sequence: YARAAARQARAMPRRAENWDEAEV [VHL(1–13), pVHL fragment conjugated with PTD]
- Morphological change ([1]; peptides at 1 to 5 μM): no morphological change

Sequence: YARAAARQARAPLQELCRQRIVAAVG [SOCS1 BC-box motif plus five amino acids]
- Neurite Outgrowth Activity [1, 8]: ++ (20–50% with neurite outgrowth)
- Expression of ChAT [2]: moderate
- Expression of TH [2]: moderate

Sequence: YARAAARQARASLKHLCRKALRSFLT [WSB2 BC-box motif plus five amino acids]
- Neurite Outgrowth Activity [1, 8]: ++ (20–50% with neurite outgrowth)
- Expression of ChAT [2]: moderate
- Expression of GAD [2]: expressed highly
- Expression of TH [2]: moderate
- Rate of GAD-positive (GABAnergic neuron-like) cells [3]: high rates of positive cells
- Rate of TH-positive (dopaminergic neuron-like) cells [3]: high rates of positive cells

Sequence: YARAAARQARASLQHICRTVI [SOCS4 BC-box motif alone]
- Neurite Outgrowth Activity [1, 7]: - (below 5% of the cells with neurite outgrowth)

Sequence: YARAAARQARASLQHICRTVICNCTT [SOCS4 BC-box motif plus five amino acids]
- Neurite Outgrowth Activity [1, 8]: ++ (20–50% with neurite outgrowth)
- Expression of rhodopsin [2]: moderate
- Expression of GAD [2]: expressed highly

Sequence: YARAAARQARASLQHLCRFRI [SOCS7 BC-box motif alone]
- Neurite Outgrowth Activity [1, 7]: + (5–19% having neurite outgrowth)

Sequence: YARAAARQARASLQHLCRFRIRQLVR [SOCS7 BC-box motif plus five amino acids]
- Neurite Outgrowth Activity [1, 8]: +++ (above 50% of the cells showing neurite outgrowth)
- Expression of ChAT [2]: high
- Expression of TH [2]: pronounced
- Rate of ChAT-positive (cholinergic neuron-like) cells [3]: high rates of positive cells

Sequence: YARAAARQARASLQYICRAVICRCTT [SOCS5 BC-box motif plus five amino acids]
- Neurite Outgrowth Activity [1, 8]: +++ (above 50% of the cells showing neurite outgrowth)
- Expression of rhodopsin [2]: highly expressed
- Rate of TH-positive (dopaminergic neuron-like) cells [3]: high rates of positive cells
- Rate of rhodopsin-positive cells [3]: high rates of positive cells

Sequence: YARAAARQARASLQYLCRFVI [SOCS6 BC-box motif alone]
- Neurite Outgrowth Activity [1, 7]: - (below 5% of the cells with neurite outgrowth)

Sequence: YARAAARQARASLQYLCRFVIRQYTR [SOCS6 BC-box motif plus five amino acids]
- Neurite Outgrowth Activity [1, 8]: ++ (20–50% with neurite outgrowth)
- Expression of TH [2]: moderate
- Rate of TH-positive (dopaminergic neuron-like) cells [3]: high rates of positive cells

Sequence: YARAAARQARASLTHLCRLEIRSSIK [ASB3 BC-box motif plus five amino acids]
- Rate of GAD-positive (GABAnergic neuron-like) cells [3]: high rates of positive cells
- Rate of TH-positive (dopaminergic neuron-like) cells [3]: high rates of positive cells

Sequence: YARAAARQARATLKERCLQVVRS [FITC-VHL(157–168), FITC-tagged VHL(157–168) peptide]
- Binding to elongin C (FITC band after anti-elongin C immunoprecipitation) [4]: a faint band for FITC
- Binding to elongin C (FITC band after anti-elongin C immunoprecipitation) ([4]; listed as FITC-conjugated VHL(157–168)): significantly less did

Sequence: YARAAARQARATLKERCLQVVRSLVK [FITC-VHL(157–171), FITC-tagged VHL(157–171) peptide]
- Binding to elongin C (FITC band after anti-elongin C immunoprecipitation) [4]: A distinct band for FITC
- Binding to elongin C (FITC band after anti-elongin C immunoprecipitation) ([4]; listed as FITC-conjugated VHL(157–171)): distinctly bound to elongin C

Sequence: YARAAARQARATLLESSARTI [LRR-1 BC-box motif alone]
- Neurite Outgrowth Activity [1, 7]: - (below 5% of the cells with neurite outgrowth)

Sequence: YARAAARQARATLLESSARTILHNRI [LRR-1 BC-box motif plus five amino acids]
- Neurite Outgrowth Activity [1, 8]: ++ (20–50% with neurite outgrowth)
- Expression of GAD [2]: expressed highly
- Rate of GAD-positive (GABAnergic neuron-like) cells [3]: high rates of positive cells
- Rate of TH-positive (dopaminergic neuron-like) cells [3]: high rates of positive cells

Sequence: YARAAARQARATLQHFCRLAI [SOCS2 BC-box motif alone]
- Neurite Outgrowth Activity [1, 7]: - (below 5% of the cells with neurite outgrowth)

Sequence: YARAAARQARATLQHFCRLAINKCT G [SOCS2 BC-box motif plus five amino acids]
- Neurite Outgrowth Activity [1, 8]: + (5–19% having neurite outgrowth)
- Expression of rhodopsin [2]: moderate
- Expression of GAD [2]: expressed highly

Sequence: YARAAARQARATLQHLCRKTV [SOCS3 BC-box motif alone]
- Neurite Outgrowth Activity [1, 7]: - (below 5% of the cells with neurite outgrowth)

Sequence: YARAAARQARATLQHLCRKTVNGHLD [SOCS3 BC-box motif plus five amino acids]
- Neurite Outgrowth Activity [1, 8]: ++ (20–50% with neurite outgrowth)
- Expression of TH [2]: moderate
- Rate of GAD-positive (GABAnergic neuron-like) cells [3]: high rates of positive cells

Sequence: YARAAARQARAVYTLKERCLQVVRSLVK [VHL(155–171), pVHL fragment conjugated with PTD]
- Morphological change ([1]; peptides at 1 to 5 μM): assumed a neuron-like morphology
- Rate of cells having neurites ([1]; ten divided pVHL sequences compared, Figure 1D, peptides at 1 to 5 μM, three days or more): greatest rate
- Rate of immunoreactivity for Neurofilament-H (NFH) [5]: greatest rate of immunoreactivity
- NFH protein expression [6]: greatest expression
